# Experimental data reported in patent US12286440B2, “Penam derivative or salt thereof, pharmaceutical composition, and applications thereof” (priority 2018, dated 2025).
# What was measured:
# Test in all cases: Antibacterial activity evaluation test, MIC by CLSI broth microdilution
# Type in all cases: cell-based
# Settings in all cases: cation-adjusted Mueller Hinton medium, 35° C., 16 to 20 hours
# [1] = system: Pseudomonas aeruginosa strain ATCC27853
# Experimental: (§1) The minimum inhibitory concentration (MIC) was measured according to the Clinical and Laboratory Standards Institute (CLSI) standard method by using the following broth microdilution method.
# (§2) As bacteria, a Pseudomonas aeruginosa strain ATCC27853, an AmpC-derepressed Pseudomonas aeruginosa mutant strain (S-3028), an IMP-1-containing Pseudomonas aeruginosa strain (S-2838), a VIM-2-containing Pseudomonas aeruginosa strain (S-3779), a GES-19 and GES-20-containing Pseudomonas aeruginosa strain (S-3759), a CTX-M-15-containing Escherichia coli strain (TK-1747), a KPC-2-containing Klebsiella pneumoniae strain (Y-995), an OXA-48-containing Klebsiella pneumoniae strain (Y-1062), and an NDM-1-containing Klebsiella pneumoniae strain (Y-1007) were used. The test bacterial cells that had been cultured overnight on a Mueller Hinton agar medium were scraped off, suspended at a density equivalent to 0.5 McFarland standard, and diluted 10-fold, thereby obtaining an inoculum. A cation-adjusted Mueller Hinton medium containing a test compound was inoculated with 0.005 mL of the inoculum, and the cells were cultured at 35° C. for 16 to 20 hours. The minimum drug concentration at which the growth of bacteria was not visually observed was defined as MIC […].
# (§3) An antibacterial activity evaluation test was performed in the same manner as in Test Example 1.
# [2] = system: AmpC-derepressed Pseudomonas aeruginosa mutant strain (S-3028)
# Experimental: as §1, §2, §3
# [3] = system: NDM-1-containing Klebsiella pneumoniae strain (Y-1007)
# Experimental: as §1, §2, §3
# [4] = system: KPC-2-containing Klebsiella pneumoniae strain (Y-995)
# Experimental: as §1, §2, §3
# [5] = system: VIM-2-containing Pseudomonas aeruginosa strain (S-3779)
# Experimental: as §1, §2, §3
# [6] = system: IMP-1-containing Pseudomonas aeruginosa strain (S-2838)
# Experimental: as §1, §2, §3
# [7] = system: CTX-M-15-containing Escherichia coli strain (TK-1747)
# Experimental: as §1, §2, §3
# [8] = system: OXA-48-containing Klebsiella pneumoniae strain (Y-1062)
# Experimental: as §1, §2, §3
# [9] = system: GES-19 and GES-20-containing Pseudomonas aeruginosa strain (S-3759)
# Experimental: as §1, §2, §3
smiles,measurement,setting,value
"Nc1nc(/C(=N/OC2(C(=O)O)CCC2)C(=O)N[C@@H]2C(=O)N3C[C@@](C(=O)O)(N4CCN(NC(=O)C(=O)c5ccc(O)c(O)c5Cl)C4=O)S[C@H]23)cs1 [Example 19, (3R,5R,6R)-6-((Z)-2-(2-aminothiazol-4-yl)-2-((1-carboxycyclobutoxy)imino)acetamido)-3-(3-(2-(2-chloro-3,4-dihydroxyphenyl)-2-oxoacetamido)-2-oxoimidazolidin-1-yl)-7-oxo-4-thia-1-azabicyclo[3.2.0]heptane-3-carboxylate]","MIC, Pseudomonas aeruginosa ATCC 27853",[1],0.25 mg/L
same,"MIC, Pseudomonas aeruginosa S-3028",[2],2 mg/L
same,"MIC, Klebsiella pneumoniae Y-1007",[3],< 0.06 mg/L
same,"MIC, Klebsiella pneumoniae Y-995",[4],0.25 mg/L
same,"MIC, Pseudomonas aeruginosa S-3779",[5],0.25 mg/L
same,"MIC, Pseudomonas aeruginosa S-2838",[6],0.25 mg/L
same,"MIC, Escherichia coli TK-1747",[7],0.5 mg/L
same,"MIC, Klebsiella pneumoniae Y-1062",[8],0.12 mg/L
same,"MIC, Pseudomonas aeruginosa S3759",[9],0.25 mg/L
